Patent US20090246293A1 (priority 2008, published 2009)
Where two headings read alike, the source gives them in different places.

Columns and labels:
[1] = tested on: Pseudoperonospora cubensis (PSPECU); conditions: in vivo
[2] = tested on: Phytophthora infestans (PHYTIN); type: in vivo; conditions: for effect of Formulation I on the effectiveness of fungicides, PHYTIN: Table 20
[3] = tested on: Plasmopara viticola (PLASVI); type: in vivo; conditions: for effect of Formulation I on the effectiveness of fungicides, PLASVI: Table 20
[4] = fungicide with Formulation I at 100 ppm
[5] = aldehyde derivative 500 ppm with mancozeb, Table 16
[6] = fungicide with Formulation I at 100 ppm, Table 19
[7] = fungicide with Formulation I at 100 ppm, Table 18
[8] = PLASVI, fungicide with Formulation II at 100 ppm of attractant derivative, Table 22

## COCC(=O)N(c1c(C)cccc1C)C(C)C(=O)OC (stereo not drawn) [Metalaxyl]
[1]
  effect of Formulation I on the effectiveness of fungicides, PSPECU: x (key: x: 0-20% reduction in percent disease; xx: 21-35% reduction in percent disease; xxx: 36-50% reduction in percent disease; xxxx: >50% reduction in percent disease)
[2]; [4]
  effect of Formulation I on the effectiveness of fungicides, PHYTIN: xx (21-35% reduction in percent disease)
[3]; [4]
  effect of Formulation I on the effectiveness of fungicides, PLASVI: x (0-20% reduction in percent disease)

## CCC(C)/C=N/NC(=O)c1cccc(C(=O)N/N=C/C(C)CC)c1 (stereo not drawn) [Compound P]
[1]
  Reduction in percent disease PSPECU: x (key: x: 0-20% reduction in percent disease; xx: 21-35% reduction in percent disease; xxx: 36-50% reduction in percent disease; xxxx: >50% reduction in percent disease)
[2]; [5]
  Reduction in percent disease PHYTIN: x (0-20% reduction in percent disease)
[3]; [5]
  Reduction in percent disease PLASVI: x (0-20% reduction in percent disease)

## CNC(=O)/C(=N/OC)c1ccccc1COc1cc(C)ccc1C [Dimoxystrobin]
[1]
  Reduction in percent disease PSPECU: x (key: x: 0-20% reduction in percent disease; xx: 21-35% reduction in percent disease; xxx: 36-50% reduction in percent disease; xxxx: >50% reduction in percent disease)
[2]; [6]
  Reduction in percent disease PHYTIN: x (0-20% reduction in percent disease)
[3]; [6]
  Reduction in percent disease PLASVI: x (0-20% reduction in percent disease)

## CCCOC(=O)NCCCN(C)C [Propamocarb]
[1]
  Reduction in percent disease PSPECU: x (key: x: 0-20% reduction in percent disease; xx: 21-35% reduction in percent disease; xxx: 36-50% reduction in percent disease; xxxx: >50% reduction in percent disease)
[2]; [7]
  Reduction in percent disease PHYTIN: xx (21-35% reduction in percent disease)
[3]; [7]
  Reduction in percent disease PLASVI: x (0-20% reduction in percent disease)

## condensation product of urea and 2- methylbutyraldehyde [Compound Q]
[1]
  Reduction in percent disease PSPECU: x (key: x: 0-20% reduction in percent disease; xx: 21-35% reduction in percent disease; xxx: 36-50% reduction in percent disease; xxxx: >50% reduction in percent disease)
[2]; [5]
  Reduction in percent disease PHYTIN: x (0-20% reduction in percent disease)
[3]; [5]
  Reduction in percent disease PLASVI: x (0-20% reduction in percent disease)

## C#CCOc1ccc(CCNC(=O)C(OCC#C)c2ccc(Cl)cc2)cc1OC (stereo not drawn) [Mandipropamid]
[1]
  Reduction in percent disease PSPECU: x (key: x: 0-20% reduction in percent disease; xx: 21-35% reduction in percent disease; xxx: 36-50% reduction in percent disease; xxxx: >50% reduction in percent disease)
[2]; [6]
  Reduction in percent disease PHYTIN: x (0-20% reduction in percent disease)
[3]; [6]
  Reduction in percent disease PLASVI: xx (21-35% reduction in percent disease)

## CO/C=C(/C(=O)OC)c1ccccc1Oc1cc(Oc2ccccc2C#N)ncn1 [Azoxystrobin]
[1]
  Reduction in percent disease PSPECU: x (key: x: 0-20% reduction in percent disease; xx: 21-35% reduction in percent disease; xxx: 36-50% reduction in percent disease; xxxx: >50% reduction in percent disease)
  effect of Formulation I on the effectiveness of fungicides, PSPECU: x (key: x: 0-20% reduction in percent disease; xx: 21-35% reduction in percent disease; xxx: 36-50% reduction in percent disease; xxxx: >50% reduction in percent disease)
[2]; [7]
  Reduction in percent disease PHYTIN: xx (21-35% reduction in percent disease)
[2]; [4]
  effect of Formulation I on the effectiveness of fungicides, PHYTIN: xxx (36-50% reduction in percent disease)
[3]; [7]
  Reduction in percent disease PLASVI: x (0-20% reduction in percent disease)

## CC(C)[C@H](NC(=O)O)C(=O)N[C@H](C)c1nc2ccc(F)cc2s1 [Benthiavalicarb]
[1]
  Reduction in percent disease PSPECU: xx (key: x: 0-20% reduction in percent disease; xx: 21-35% reduction in percent disease; xxx: 36-50% reduction in percent disease; xxxx: >50% reduction in percent disease)
[2]; [6]
  Reduction in percent disease PHYTIN: x (0-20% reduction in percent disease)
[3]; [6]
  Reduction in percent disease PLASVI: x (0-20% reduction in percent disease)

## C/C(CC(C)C)=N\NC(=O)Nc1ccccc1 [Compound O]
[1]
  Reduction in percent disease PSPECU: xx (key: x: 0-20% reduction in percent disease; xx: 21-35% reduction in percent disease; xxx: 36-50% reduction in percent disease; xxxx: >50% reduction in percent disease)
[2]; [5]
  Reduction in percent disease PHYTIN: xx (21-35% reduction in percent disease)
[3]; [5]
  Reduction in percent disease PLASVI: x (0-20% reduction in percent disease)

## Cc1ccc(-c2c(Cl)nc(C#N)n2S(=O)(=O)N(C)C)cc1 [Cyazofamid]
[1]
  Reduction in percent disease, Formul. II: x (key: x: 0-20% reduction in percent disease; xx: 21-35% reduction in percent disease; xxx: 36-50% reduction in percent disease; xxxx: >50% reduction in percent disease)
[2]; PHYTIN, fungicide with Formulation I at 100 ppm, Table 21
  Reduction in percent disease, Formul. I: xx (21-35% reduction in percent disease)
[2]; PHYTIN, fungicide with Formulation II at 100 ppm, Table 21
  Reduction in percent disease, Formul. II: xxx (36-50% reduction in percent disease)
[2]; [6]
  Reduction in percent disease PHYTIN: x (0-20% reduction in percent disease)
[3]; PLASVI, fungicide with Formulation I at 100 ppm, Table 21
  Reduction in percent disease, Formul. I: x (0-20% reduction in percent disease)
[3]; PLASVI, fungicide with Formulation II at 100 ppm, Table 21
  Reduction in percent disease, Formul. II: x (0-20% reduction in percent disease)
[3]; [6]
  Reduction in percent disease PLASVI: x (0-20% reduction in percent disease)

## condensation product of urea and 3,3- dimethylbutyraldehyde [Compound R]
[1]
  Reduction in percent disease PSPECU: x (key: x: 0-20% reduction in percent disease; xx: 21-35% reduction in percent disease; xxx: 36-50% reduction in percent disease; xxxx: >50% reduction in percent disease)
[2]; [5]
  Reduction in percent disease PHYTIN: xx (21-35% reduction in percent disease)
[3]; [5]
  Reduction in percent disease PLASVI: x (0-20% reduction in percent disease)

## COCC(=O)N(c1c(C)cccc1C)[C@H](C)C(=O)OC [Mefenoxam]
[1]
  Reduction in percent disease, Formul. II: x (key: x: 0-20% reduction in percent disease; xx: 21-35% reduction in percent disease; xxx: 36-50% reduction in percent disease; xxxx: >50% reduction in percent disease)
[2]; PHYTIN, fungicide with Formulation II at 100 ppm of attractant derivative, Table 22
  Reduction in percent disease, Formul. II: xx (21-35% reduction in percent disease)
[2]; [7]
  Reduction in percent disease PHYTIN: xxxx (>50% reduction in percent disease)
[2]; [4]
  effect of Formulation I on the effectiveness of fungicides, PHYTIN: xx (21-35% reduction in percent disease)
[3]; [8]
  Reduction in percent disease, Formul. II: xx (21-35% reduction in percent disease)
[3]; [4]
  effect of Formulation I on the effectiveness of fungicides, PLASVI: x (0-20% reduction in percent disease)

## C[C@@]1(c2ccc(Oc3ccccc3)cc2)OC(=O)N(Nc2ccccc2)C1=O (racemic) [Famoxadone]
[1]
  Reduction in percent disease PSPECU: x (key: x: 0-20% reduction in percent disease; xx: 21-35% reduction in percent disease; xxx: 36-50% reduction in percent disease; xxxx: >50% reduction in percent disease)
[2]; [6]
  Reduction in percent disease PHYTIN: xx (21-35% reduction in percent disease)
[3]; [6]
  Reduction in percent disease PLASVI: x (0-20% reduction in percent disease)

## O=C(NCc1ncc(C(F)(F)F)cc1Cl)c1c(Cl)cccc1Cl [Fluopicolide]
[1]
  effect of Formulation I on the effectiveness of fungicides, PSPECU: x (key: x: 0-20% reduction in percent disease; xx: 21-35% reduction in percent disease; xxx: 36-50% reduction in percent disease; xxxx: >50% reduction in percent disease)
[2]; [4]
  effect of Formulation I on the effectiveness of fungicides, PHYTIN: xx (21-35% reduction in percent disease)
[3]; [8]
  Reduction in percent disease, Formul. II: x (0-20% reduction in percent disease)

## [Cl-].[Cu+2].[Cu+2].[OH-].[OH-].[OH-] [Copper oxychloride]
[1]
  effect of Formulation I on the effectiveness of fungicides, PSPECU: x (key: x: 0-20% reduction in percent disease; xx: 21-35% reduction in percent disease; xxx: 36-50% reduction in percent disease; xxxx: >50% reduction in percent disease)
[2]; [4]
  effect of Formulation I on the effectiveness of fungicides, PHYTIN: x (0-20% reduction in percent disease)
[3]; [4]
  effect of Formulation I on the effectiveness of fungicides, PLASVI: x (0-20% reduction in percent disease)
